Data as given in patent publication US20150152441A1, “METHODS AND SYSTEMS FOR IMPROVING FERMENTATION EFFICIENCY” (LanzaTech New Zealand Limited, priority 2013, published 2015).

Experiments:
[1] = test system: Clostridium autoethanogenum culture; experiment: Determination of effect of BTEX on fermentation (continuous CO gas fermentation; impact seen as rising pH and/or effect on CO and H2 uptake); format: cell-based; details: for Liquid tolerance level / Liquid impact level (ppm): level in fermentation broth, compound added individually; for Liquid tolerance level: addition lowered until no effect was observed; for Liquid impact level (ppm): impact = rising pH and/or effect on CO and H2 uptake
Method: Media was prepared according to the composition described in Tables 1-3 to a volume of 1.5 L and 1.5 ml of resazurin added. The solution was heated and agitated whilst degassed with N2. A Na2S drip was started at a rate of 0.5 ml/hr and temperature of the bioreactor set to 37° C. The pH was adjusted to 5.0 with NH4OH and chromium was added to adjust the ORP to −200 mV. The bioreactor was then supplied with RMG (43% CO, 20% CO2, 2.5% H2 and 33% N2) at a flow rate of 50 ml/min. The solution was inoculated with 150 ml of an actively growing Clostridium autoethanogenum culture. The fermentation was operated continuously for a period of 41 days at dilution rate 1.5. At day 26.8, Toluene was added to the gas phase. To achieve this, the inflow gas was sparged through a toluene solution, which allowed toluene to accumulate in the reactor. Toluene was allowed to accumulate for 17 hours. The fermentation was allowed to recover and the experiment was repeated on day 27.8.
The reactor was allowed to recover. On day 35 Benzene was added to the gas phase. To achieve this, the inflow gas was sparged through a benzene solution, which allowed benzene to accumulate in the reactor. […] Benzene was allowed to accumulate to higher concentrations.
The effect of the addition of xylene and ethylbenzene were also performed using the same techniques. Based on vapour pressure the compounds would evaporate at a certain rate into gaseous phase.
The effect of the introduction of the various BTEX compounds on bacterial culture performance was determined by measurement of the following: culture density, metabolite concentration (ethanol, acetate, etc), oxidation-reduction potential, pH, carbon monoxide and hydrogen consumption. The compound accumulation in the gas and culture liquid phase was determined by GC-MS measurements.
Liquid tolerance levels were determined by lowering the addition until no effect was observed.

[2] = cited from earlier work

Molecule: c1ccccc1 [Benzene]
- level in broth at which the compound began to effect the fermentation ([1]; FIG. 5-7): ≥ 50 ppm
- accumulation resulting in an increase in pH and decrease in CO uptake ([1]; FIG. 6, 7): greater than 50 ppm
- accumulation level with no observable effect on the fermentation ([1]; benzene added to gas phase on day 35): ≤ 40 ppm
- Liquid tolerance level [1]: <40 ppm
- Liquid impact level (ppm) [1]: >40 ppm
- mm Hg vapor pressure (25° C.) [2]: 76 mm Hg

Molecule: CCc1ccccc1 [Ethyl Benzene]
- effect of addition to the reactor on the fermentation [1]: same effect was also seen
- Liquid tolerance level [1]: <10 ppm
- Liquid impact level (ppm) [1]: >20 ppm
- mm Hg vapor pressure (25° C.) [2]: 7 mm Hg

Molecule: Cc1ccccc1 [Toluene]
- level in fermentation broth at which CO uptake decreased, with rising pH trend ([1]; after 3.5 hours exposure, FIG. 2-4): greater than 100 ppm
- level in broth below which CO uptake and pH returned to pre-addition levels (fermentation recovers) ([1]; after toluene addition was stopped): below 100 ppm
- effect on carbon monoxide utilisation of the microorganism ([1]; excess levels in fermentation solution): clear negative effect
- Liquid tolerance level [1]: <25 ppm
- Liquid impact level (ppm) [1]: >50 ppm
- mm Hg vapor pressure (25° C.) [2]: 22 mm Hg

Molecule: c1ccc2ccccc2c1 [naphthalene]
- effect of addition to the reactor on the fermentation [1]: does not have a negative effect on the fermentation

Molecule: Xylenes
- effect of addition to the reactor on the fermentation [1]: same effect was also seen
- Liquid tolerance level [1]: <10 ppm
- Liquid impact level (ppm) [1]: >100 ppm
